Assay results as given in patent publication US10294202B2, “Pyrrolidinones as herbicides” (FMC Corporation, priority 2013, dated 2019).

What was measured:
[1] = tested on: velvetleaf; assay: Test C pre-/postemergence herbicide test; format: in vivo, Abutilon theophrasti
Method in brief: (§1)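 Pre- and postemergence greenhouse screen. Preemergence treatment went onto freshly planted seeds in loam–sand soil; postemergence treatment went onto plants 2 to 18 cm tall at the 1- to 4-leaf stage in sphagnum peat/vermiculite medium. Scoring at 13 to 15 days used a 0–100 control scale.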

[2] = tested on: barnyardgrass; assay: Test B flooded paddy test; format: in vivo, Echinochloa crus-galli; settings: 500 g ai/ha, Flood; scale of 0 to 100 where 0 is no effect and 100 is complete control
Method in brief: (§2)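 2-leaf plants; flood 3 cm over soil; compound into paddy water; depth held. Greenhouse 13–15 d. Visual rating vs controls, 0 (no effect) to 100 (complete control); dash = not tested.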

[3] = tested on: oilseed rape; assay: Test C pre-/postemergence herbicide test; format: in vivo, Brassica napus
Method in brief: as §1

[4] = tested on: sedge, umbrella; assay: Test B flooded paddy test; format: in vivo, Cyperus difformis; settings: 500 g ai/ha, Flood; scale of 0 to 100 where 0 is no effect and 100 is complete control
Method in brief: as §2

[5] = tested on: rice; assay: Test B flooded paddy test; format: in vivo, Oryza sativa; settings: 500 g ai/ha, Flood; scale of 0 to 100 where 0 is no effect and 100 is complete control
Method in brief: as §2

[6] = tested on: crabgrass, large; assay: Test C pre-/postemergence herbicide test; format: in vivo, Digitaria sanguinalis
Method in brief: as §1

[7] = tested on: blackgrass; assay: Test C pre-/postemergence herbicide test; format: in vivo, Alopecurus myosuroides
Method in brief: as §1

[8] = tested on: wheat; assay: Test A pre-/postemergence herbicide test; format: in vivo, Triticum aestivum; settings: Postemergence
Method in brief: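 Visual injury ratings, 0 = no effect, 100 = complete control, taken ~10 days after treatment against untreated greenhouse controls. Preemergence: directed soil spray onto seeded loam/sand pots. Postemergence: spray onto plants at one- to two-leaf stage, 2–10 cm tall.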

[9] = tested on: pigweed; assay: Test C pre-/postemergence herbicide test; format: in vivo, Amaranthus retroflexus
Method in brief: as §1

[10] = tested on: ragweed; assay: Test C pre-/postemergence herbicide test; format: in vivo, Ambrosia elatior
Method in brief: as §1

[11] = tested on: wheat (winter wheat); assay: Test C pre-/postemergence herbicide test; format: in vivo, Triticum aestivum
Method in brief: as §1

[12] = tested on: johnsongrass; assay: Test C pre-/postemergence herbicide test; format: in vivo, Sorghum halepense
Method in brief: as §1

[13] = Postemergence, 31 g ai/ha, scale 0 to 100 (0 no effect, 100 complete control)
[14] = Postemergence, 62 g ai/ha, scale 0 (no effect) to 100 (complete control)
[15] = Postemergence, 125 g ai/ha, scale 0 to 100 (0 no effect, 100 complete control)
[16] = Postemergence, 250 g ai/ha, scale 0 to 100 (0 no effect, 100 complete control)
[17] = Preemergence, 62 g ai/ha, scale 0 to 100 (0 no effect, 100 complete control)
[18] = Preemergence, 125 g ai/ha, scale 0 to 100
[19] = Preemergence, 31 g ai/ha, scale 0 to 100, 0 is no effect and 100 is complete control
[20] = 125 g ai/ha, visual rating on 0 to 100 scale (0 no effect, 100 complete control), approx. 10 days
[21] = 500 g ai/ha, 0 to 100 scale (0 no effect, 100 complete control)

Cc1cccc(NC(=O)C2C(=O)NCC2c2cccc(C(F)(F)F)c2)c1 (stereo not shown) [Compound 317]
Plant response rating, Velvetleaf [1, 13]: 0 | Plant response rating, Velvetleaf [1, 14]: 0 | Plant response rating, Velvetleaf [1, 15]: 0 | Plant response rating, Velvetleaf [1, 16]: 0 | Velvetleaf plant response rating [1, 17]: 0 | Plant response rating, Velvetleaf [1, 18]: 0 | Plant response rating, Barnyardgrass [2]: 75 | Plant response rating, Oilseed Rape [3, 13]: 0 | Plant response rating, Oilseed Rape [3, 14]: 0 | Plant response rating, Oilseed Rape [3, 15]: 0 | Plant response rating, Oilseed Rape [3, 16]: 0 | Oilseed Rape plant response rating [3, 19]: 0 | Oilseed Rape plant response rating [3, 17]: 0 | Plant response rating, Oilseed Rape [3, 18]: 0 | Plant response rating (scale of 0 to 100), Oilseed Rape ([3]; Preemergence, 250 g ai/ha): 0 | Plant response rating, Sedge, Umbrella [4]: 0 | Plant response rating, Rice [5]: 0 | Plant response rating, Crabgrass, Large [6, 13]: 0 | Plant response rating, Crabgrass, Large [6, 14]: 25 | Plant response rating, Crabgrass, Large [6, 15]: 45 | Plant response rating, Crabgrass, Large [6, 16]: 50 | Crabgrass, Large plant response rating [6, 19]: 95 | Crabgrass, Large plant response rating [6, 17]: 95 | Plant response rating, Crabgrass, Large [6, 18]: 95 | Plant response rating (scale of 0 to 100), Crabgrass, Large ([6]; Preemergence, 250 g ai/ha): 98 | Plant response rating, Blackgrass [7, 13]: 0 | Plant response rating, Blackgrass [7, 14]: 0 | Plant response rating, Blackgrass [7, 15]: 0 | Plant response rating, Blackgrass [7, 16]: 0 | Blackgrass plant response rating [7, 19]: 0 | Blackgrass plant response rating [7, 17]: 40 | Plant response rating, Blackgrass [7, 18]: 50 | Plant response rating (scale of 0 to 100), Blackgrass ([7]; Preemergence, 250 g ai/ha): 50 | Plant response rating, Wheat [8, 20]: 0 | Plant response rating, Wheat [8, 21]: 20 | Plant response rating, Pigweed [9, 13]: 5 | Plant response rating, Pigweed [9, 14]: 5 | Plant response rating, Pigweed [9, 15]: 5 | Plant response rating, Pigweed [9, 16]: 5 | Pigweed plant response rating [9, 19]: 0 | Pigweed plant response rating [9, 17]: 0 | Plant response rating, Pigweed [9, 18]: 0 | Plant response rating, Ragweed [10, 13]: 0 | Plant response rating, Ragweed [10, 14]: 0 | Plant response rating, Ragweed [10, 15]: 25 | Plant response rating, Ragweed [10, 16]: 40 | Ragweed plant response rating [10, 17]: 0 | Plant response rating, Ragweed [10, 18]: 0 | Plant response rating, Wheat [11, 13]: 0 | Plant response rating, Wheat [11, 14]: 0 | Plant response rating, Wheat [11, 15]: 0 | Plant response rating, Wheat [11, 16]: 0 | Wheat plant response rating [11, 17]: 0 | Plant response rating, Wheat [11, 18]: 0 | Plant response rating, Johnsongrass [12, 13]: 0 | Plant response rating, Johnsongrass [12, 14]: 0 | Plant response rating, Johnsongrass [12, 15]: 0 | Plant response rating, Johnsongrass [12, 16]: 5 | Johnsongrass plant response rating [12, 19]: 0 | Johnsongrass plant response rating [12, 17]: 0 | Plant response rating, Johnsongrass [12, 18]: 0 | Plant response rating (scale of 0 to 100), Johnsongrass ([12]; Preemergence, 250 g ai/ha): 30

O=C1NCC(c2cccc(OC(F)F)c2)C1C(=O)Nc1cccc(F)c1F (stereo not shown) [Compound 324]
Plant response rating, Velvetleaf [1, 13]: 0 | Plant response rating, Velvetleaf [1, 14]: 55 | Plant response rating, Velvetleaf [1, 15]: 50 | Plant response rating, Velvetleaf [1, 16]: 55 | Velvetleaf plant response rating [1, 17]: 35 | Plant response rating, Velvetleaf [1, 18]: 40 | Plant response rating, Barnyardgrass [2]: 80 | Plant response rating, Oilseed Rape [3, 13]: 0 | Plant response rating, Oilseed Rape [3, 14]: 0 | Plant response rating, Oilseed Rape [3, 15]: 0 | Plant response rating, Oilseed Rape [3, 16]: 0 | Oilseed Rape plant response rating [3, 19]: 0 | Oilseed Rape plant response rating [3, 17]: 70 | Plant response rating, Oilseed Rape [3, 18]: 85 | Plant response rating (scale of 0 to 100), Oilseed Rape ([3]; Preemergence, 250 g ai/ha): 90 | Plant response rating, Sedge, Umbrella [4]: 0 | Plant response rating, Rice [5]: 30 | Plant response rating, Crabgrass, Large [6, 13]: 25 | Plant response rating, Crabgrass, Large [6, 14]: 60 | Plant response rating, Crabgrass, Large [6, 15]: 70 | Plant response rating, Crabgrass, Large [6, 16]: 75 | Crabgrass, Large plant response rating [6, 19]: 95 | Crabgrass, Large plant response rating [6, 17]: 95 | Plant response rating, Crabgrass, Large [6, 18]: 98 | Plant response rating (scale of 0 to 100), Crabgrass, Large ([6]; Preemergence, 250 g ai/ha): 98 | Plant response rating, Blackgrass [7, 13]: 0 | Plant response rating, Blackgrass [7, 14]: 0 | Plant response rating, Blackgrass [7, 15]: 0 | Plant response rating, Blackgrass [7, 16]: 0 | Blackgrass plant response rating [7, 19]: 100 | Blackgrass plant response rating [7, 17]: 30 | Plant response rating, Blackgrass [7, 18]: 70 | Plant response rating (scale of 0 to 100), Blackgrass ([7]; Preemergence, 250 g ai/ha): 95 | Plant response rating, Wheat [8, 20]: 30 | Plant response rating, Wheat [8, 21]: 80 | Plant response rating, Pigweed [9, 13]: 0 | Plant response rating, Pigweed [9, 14]: 35 | Plant response rating, Pigweed [9, 15]: 65 | Plant response rating, Pigweed [9, 16]: 55 | Pigweed plant response rating [9, 19]: 55 | Pigweed plant response rating [9, 17]: 75 | Plant response rating, Pigweed [9, 18]: 80 | Plant response rating, Ragweed [10, 13]: 5 | Plant response rating, Ragweed [10, 14]: 20 | Plant response rating, Ragweed [10, 15]: 25 | Plant response rating, Ragweed [10, 16]: 40 | Ragweed plant response rating [10, 17]: 60 | Plant response rating, Ragweed [10, 18]: 75 | Plant response rating, Wheat [11, 13]: 0 | Plant response rating, Wheat [11, 14]: 0 | Plant response rating, Wheat [11, 15]: 0 | Plant response rating, Wheat [11, 16]: 0 | Wheat plant response rating [11, 17]: 25 | Plant response rating, Wheat [11, 18]: 65 | Plant response rating, Johnsongrass [12, 13]: 0 | Plant response rating, Johnsongrass [12, 14]: 0 | Plant response rating, Johnsongrass [12, 15]: 0 | Plant response rating, Johnsongrass [12, 16]: 10 | Johnsongrass plant response rating [12, 19]: 40 | Johnsongrass plant response rating [12, 17]: 65 | Plant response rating, Johnsongrass [12, 18]: 80 | Plant response rating (scale of 0 to 100), Johnsongrass ([12]; Preemergence, 250 g ai/ha): 85
